Assay [1] relates to panel of tyrosine kinases. Kind of assay: Kinase inhibitor profiling across a panel of tyrosine kinases, selectivity score. The class given is biochemical. The protocol:
To analyze each analog's selectivity across the panel, selectivity scores were used (Davis et al., Nat. Biotechnol. 2011, 29, 1046-51), which are simply the number of kinases inhibited above a certain threshold divided by the number of kinases evaluated. […] For example at 1000 nM 2e-(R) yielded an S(40%) of 0.11 while 2e-(S) gave an S(40%) of 0.16. […] Differences in selectivity between 2e-(R) and 2e-(S) at 5000 nM (4.5 times the IC50 of 2e-(S) toward Src) and for 5 at 1000 nM (6.25 times the IC50 of 5 toward Src) can be viewed graphically across tyrosine kinases (FIG. 3). Importantly, similar trends were also observed across each of the atropisomeric series tested.
All samples were sent out to Life Technologies to obtain kinase inhibition data. A brief description of the assays and analyses are included below.
Assay Theory (SelectScreen® Kinase Profiling Services (Life Technologies, Madison, Wis. USA). The Z′-LYTE® biochemical assay employs a fluorescence-based, coupled-enzyme format and is based on the differential sensitivity of phosphorylated and non-phosphorylated peptides to proteolytic cleavage. The peptide substrate is labeled with two fluorophores—one at each end—that make up a FRET pair.
In the primary reaction, the kinase transfers the gamma-phosphate of ATP to a single tyrosine, serine or threonine residue in a synthetic FRET-peptide. In the secondary reaction, a site-specific protease recognizes and cleaves non-phosphorylated FRET-peptides. Phosphorylation of FRET-peptides suppresses cleavage by the Development Reagent. Cleavage disrupts FRET between the donor (i.e., coumarin) and acceptor (i.e., fluorescein) fluorophores on the FRET-peptide, whereas uncleaved, phosphorylated FRET-peptides maintain FRET. A ratiometric method, which calculates the ratio (the Emission Ratio) of donor emission to acceptor emission after excitation of the donor fluorophore at 400 nm, is used to quantitate reaction progress, as shown in the equation below: […]
A significant benefit of this ratiometric method for quantitating reaction progress is the elimination of well-to-well variations in FRET-peptide concentration and signal intensities. […] Both cleaved and uncleaved FRET-peptides contribute to the fluorescence signals and therefore to the Emission Ratio. The extent of phosphorylation of the FRET-peptide can be calculated from the Emission Ratio. The Emission Ratio will remain low 1f the FRET-peptide is phosphorylated (i.e., no kinase inhibition) and will be high if the FRET-peptide is non-phosphorylated (i.e., kinase inhibition).
Both cleaved and uncleaved FRET-peptides contribute to the fluorescence signals and therefore to the Emission Ratio. The extent of phosphorylation of the FRET-peptide can be calculated from the Emission Ratio. The Emission Ratio will remain low if the FRET-peptide is phosphorylated (i.e., no kinase inhibition) and will be high if the FRET-peptide is non-phosphorylated (i.e., kinase inhibition).

A further assay deals with Abl (Homo sapiens, UniProt P00519). Briefly: Z'-LYTE kinase inhibition, Abl.
Chain of Abl (P00519 whole entry): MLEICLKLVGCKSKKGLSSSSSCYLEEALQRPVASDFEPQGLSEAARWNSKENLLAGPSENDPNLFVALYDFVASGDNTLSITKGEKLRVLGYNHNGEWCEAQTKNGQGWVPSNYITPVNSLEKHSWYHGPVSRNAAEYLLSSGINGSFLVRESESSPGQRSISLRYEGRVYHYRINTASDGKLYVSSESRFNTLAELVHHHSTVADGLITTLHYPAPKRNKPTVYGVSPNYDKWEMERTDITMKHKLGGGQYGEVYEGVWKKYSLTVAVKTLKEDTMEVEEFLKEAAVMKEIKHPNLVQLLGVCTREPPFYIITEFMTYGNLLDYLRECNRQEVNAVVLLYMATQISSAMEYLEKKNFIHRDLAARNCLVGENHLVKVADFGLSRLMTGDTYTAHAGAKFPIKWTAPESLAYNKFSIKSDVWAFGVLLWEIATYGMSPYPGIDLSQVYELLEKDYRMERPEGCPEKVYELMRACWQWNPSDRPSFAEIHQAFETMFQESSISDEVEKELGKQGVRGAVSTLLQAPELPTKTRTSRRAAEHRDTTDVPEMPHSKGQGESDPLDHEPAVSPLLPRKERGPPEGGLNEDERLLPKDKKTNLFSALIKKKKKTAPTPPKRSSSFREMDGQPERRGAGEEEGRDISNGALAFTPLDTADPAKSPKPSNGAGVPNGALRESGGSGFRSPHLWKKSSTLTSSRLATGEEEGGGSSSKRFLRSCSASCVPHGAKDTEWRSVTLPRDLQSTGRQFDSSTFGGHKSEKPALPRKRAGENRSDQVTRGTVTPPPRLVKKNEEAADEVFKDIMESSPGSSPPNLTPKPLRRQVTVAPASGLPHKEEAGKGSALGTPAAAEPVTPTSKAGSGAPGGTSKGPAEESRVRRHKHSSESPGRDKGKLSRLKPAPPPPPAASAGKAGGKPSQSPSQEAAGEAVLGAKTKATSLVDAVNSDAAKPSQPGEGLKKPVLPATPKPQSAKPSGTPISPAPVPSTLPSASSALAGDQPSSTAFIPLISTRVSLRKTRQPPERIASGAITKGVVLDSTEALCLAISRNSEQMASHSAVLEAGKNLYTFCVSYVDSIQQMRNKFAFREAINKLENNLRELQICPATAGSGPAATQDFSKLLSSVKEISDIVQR
The next assay has as its target Alk (Homo sapiens, UniProt Q9UM73). Briefly: Z'-LYTE kinase inhibition, Alk.
The next assay addresses Blk (Homo sapiens, UniProt P51451). Briefly: Z'-LYTE kinase inhibition, Blk.
Another assay addresses BTK (Homo sapiens, UniProt Q06187). Kind of assay: Z'-LYTE kinase inhibition, BTK.
The target of the next assay is CSK (Homo sapiens, UniProt P41240). Kind of assay: Z'-LYTE kinase inhibition, CSK.
Another assay addresses Fgr (Homo sapiens, UniProt P09769). Briefly: Z'-LYTE kinase inhibition, Fgr.
The target of the next assay is Fyn (Homo sapiens, UniProt P06241). Briefly: Z'-LYTE kinase inhibition, Fyn.
The next assay concerns the target Hck (Homo sapiens, UniProt P08631). Kind of assay: Z'-LYTE kinase inhibition, Hck.
The next assay addresses Kit (Homo sapiens, UniProt P10721). Briefly: Z'-LYTE kinase inhibition, Kit.
A further assay addresses Lck (Homo sapiens, UniProt P06239). Briefly: Z'-LYTE kinase inhibition, Lck.
Another assay has as its target Lyn (Homo sapiens, UniProt P07948). Briefly: Z'-LYTE kinase inhibition, Lyn.
The target in a further assay is Ret kinase (Homo sapiens, UniProt P07949). Briefly: Z'-LYTE kinase inhibition, Ret.
Chain of Ret kinase (P07949 29-1114): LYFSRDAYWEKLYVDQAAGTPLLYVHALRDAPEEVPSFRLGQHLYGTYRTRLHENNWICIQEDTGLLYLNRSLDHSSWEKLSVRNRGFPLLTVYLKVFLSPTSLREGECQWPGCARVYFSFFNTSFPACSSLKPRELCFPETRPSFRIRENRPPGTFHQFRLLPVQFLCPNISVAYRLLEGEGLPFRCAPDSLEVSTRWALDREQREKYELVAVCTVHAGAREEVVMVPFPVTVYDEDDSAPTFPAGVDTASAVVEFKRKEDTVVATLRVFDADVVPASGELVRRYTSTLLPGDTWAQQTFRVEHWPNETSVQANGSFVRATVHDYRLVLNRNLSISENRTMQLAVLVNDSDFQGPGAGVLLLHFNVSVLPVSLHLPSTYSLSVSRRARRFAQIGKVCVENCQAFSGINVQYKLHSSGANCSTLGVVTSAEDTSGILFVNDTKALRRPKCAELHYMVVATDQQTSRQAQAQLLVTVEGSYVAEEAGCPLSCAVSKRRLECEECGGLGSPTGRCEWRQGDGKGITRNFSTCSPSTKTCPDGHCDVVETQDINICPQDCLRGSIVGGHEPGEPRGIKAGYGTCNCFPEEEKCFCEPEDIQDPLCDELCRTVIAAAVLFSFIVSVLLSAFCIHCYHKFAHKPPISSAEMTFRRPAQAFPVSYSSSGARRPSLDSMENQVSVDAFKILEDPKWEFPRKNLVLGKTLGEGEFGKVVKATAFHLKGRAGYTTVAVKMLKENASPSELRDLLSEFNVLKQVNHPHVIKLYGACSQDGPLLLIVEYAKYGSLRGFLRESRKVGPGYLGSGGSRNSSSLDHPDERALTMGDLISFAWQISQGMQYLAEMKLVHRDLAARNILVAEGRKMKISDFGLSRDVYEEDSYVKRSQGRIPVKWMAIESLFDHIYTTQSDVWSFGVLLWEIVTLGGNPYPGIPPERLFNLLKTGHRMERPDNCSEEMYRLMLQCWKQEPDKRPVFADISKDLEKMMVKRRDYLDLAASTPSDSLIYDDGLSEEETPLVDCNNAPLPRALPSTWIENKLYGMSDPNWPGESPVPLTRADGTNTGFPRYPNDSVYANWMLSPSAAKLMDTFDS
Another assay deals with Yes (Homo sapiens, UniProt P07947). Briefly: Z'-LYTE kinase inhibition, Yes.
Chain of Yes (P07947 whole entry): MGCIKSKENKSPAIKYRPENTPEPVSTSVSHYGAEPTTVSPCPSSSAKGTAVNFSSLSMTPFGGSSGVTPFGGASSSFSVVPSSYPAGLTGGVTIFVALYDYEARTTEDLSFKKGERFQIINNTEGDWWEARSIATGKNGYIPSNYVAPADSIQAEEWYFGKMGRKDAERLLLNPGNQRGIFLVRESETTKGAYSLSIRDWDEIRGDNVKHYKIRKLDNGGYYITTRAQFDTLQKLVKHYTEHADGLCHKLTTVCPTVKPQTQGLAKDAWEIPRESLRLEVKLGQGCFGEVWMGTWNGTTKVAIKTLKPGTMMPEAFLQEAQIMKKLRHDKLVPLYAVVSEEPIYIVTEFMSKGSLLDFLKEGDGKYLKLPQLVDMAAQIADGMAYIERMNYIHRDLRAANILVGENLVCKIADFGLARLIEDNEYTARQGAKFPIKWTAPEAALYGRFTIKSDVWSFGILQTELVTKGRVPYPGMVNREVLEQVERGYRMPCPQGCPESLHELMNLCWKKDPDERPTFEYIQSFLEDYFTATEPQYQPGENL
The target in the next assay is Src kinase (Homo sapiens, UniProt P12931). Briefly: Z'-LYTE kinase inhibition, Src. The note with it: Src relative to Yes.
A further assay addresses EGFR (Homo sapiens, UniProt P00533). Kind of assay: Z'-LYTE kinase inhibition, EGFR. The following applies: EGFR relative to Yes.
In a further assay the target is pdgfr-a (Homo sapiens, UniProt P16234). Briefly: Z'-LYTE kinase inhibition, pdgfr-a.
In the next assay the target is pdgfr-b (Homo sapiens, UniProt P09619). Kind of assay: Z'-LYTE kinase inhibition, pdgfr-b.

Bounds are passed on as bounds.

Chain of Hck (P08631 whole entry): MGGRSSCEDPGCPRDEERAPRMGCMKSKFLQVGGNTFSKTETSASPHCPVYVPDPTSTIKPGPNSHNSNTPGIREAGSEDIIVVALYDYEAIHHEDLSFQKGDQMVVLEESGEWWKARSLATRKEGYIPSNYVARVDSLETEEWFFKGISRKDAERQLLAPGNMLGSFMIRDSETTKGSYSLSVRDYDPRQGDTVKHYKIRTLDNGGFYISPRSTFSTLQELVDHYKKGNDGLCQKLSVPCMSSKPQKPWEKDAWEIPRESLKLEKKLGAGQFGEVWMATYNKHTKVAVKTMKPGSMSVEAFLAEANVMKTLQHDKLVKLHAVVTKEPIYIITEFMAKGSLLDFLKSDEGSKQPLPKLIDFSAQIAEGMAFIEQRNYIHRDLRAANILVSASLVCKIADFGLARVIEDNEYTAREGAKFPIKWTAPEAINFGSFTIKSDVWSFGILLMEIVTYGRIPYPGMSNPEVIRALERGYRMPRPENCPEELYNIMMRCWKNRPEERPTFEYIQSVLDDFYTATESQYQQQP
Chain of Lck (P06239 whole entry): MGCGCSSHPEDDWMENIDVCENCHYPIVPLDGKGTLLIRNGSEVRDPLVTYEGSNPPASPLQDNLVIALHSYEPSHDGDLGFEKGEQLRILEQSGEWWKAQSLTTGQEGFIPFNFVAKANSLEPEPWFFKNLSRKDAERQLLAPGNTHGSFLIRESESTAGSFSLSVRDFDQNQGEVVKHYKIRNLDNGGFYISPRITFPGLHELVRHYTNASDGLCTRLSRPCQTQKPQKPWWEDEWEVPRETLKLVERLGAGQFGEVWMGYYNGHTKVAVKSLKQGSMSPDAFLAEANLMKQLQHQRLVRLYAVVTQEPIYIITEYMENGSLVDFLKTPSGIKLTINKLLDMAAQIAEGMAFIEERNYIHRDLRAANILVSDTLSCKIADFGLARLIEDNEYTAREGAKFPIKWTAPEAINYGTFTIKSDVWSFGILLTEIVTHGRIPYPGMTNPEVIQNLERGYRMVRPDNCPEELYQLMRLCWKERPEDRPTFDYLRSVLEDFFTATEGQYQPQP
Chain of Blk (P51451 whole entry): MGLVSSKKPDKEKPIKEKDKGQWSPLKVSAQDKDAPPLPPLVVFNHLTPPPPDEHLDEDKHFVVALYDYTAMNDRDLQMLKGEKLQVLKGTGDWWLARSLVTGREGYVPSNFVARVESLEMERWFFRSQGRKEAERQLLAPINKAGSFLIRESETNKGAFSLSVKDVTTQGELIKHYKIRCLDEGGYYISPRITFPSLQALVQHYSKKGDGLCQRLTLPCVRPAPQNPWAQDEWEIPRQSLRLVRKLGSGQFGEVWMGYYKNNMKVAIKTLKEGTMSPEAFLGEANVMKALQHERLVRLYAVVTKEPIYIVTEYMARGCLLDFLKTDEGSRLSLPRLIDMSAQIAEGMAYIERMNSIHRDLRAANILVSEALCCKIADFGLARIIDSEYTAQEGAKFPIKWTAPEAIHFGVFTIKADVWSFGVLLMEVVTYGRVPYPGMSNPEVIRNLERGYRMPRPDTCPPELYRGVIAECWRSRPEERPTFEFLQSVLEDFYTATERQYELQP
Chain of Lyn (P07948 whole entry): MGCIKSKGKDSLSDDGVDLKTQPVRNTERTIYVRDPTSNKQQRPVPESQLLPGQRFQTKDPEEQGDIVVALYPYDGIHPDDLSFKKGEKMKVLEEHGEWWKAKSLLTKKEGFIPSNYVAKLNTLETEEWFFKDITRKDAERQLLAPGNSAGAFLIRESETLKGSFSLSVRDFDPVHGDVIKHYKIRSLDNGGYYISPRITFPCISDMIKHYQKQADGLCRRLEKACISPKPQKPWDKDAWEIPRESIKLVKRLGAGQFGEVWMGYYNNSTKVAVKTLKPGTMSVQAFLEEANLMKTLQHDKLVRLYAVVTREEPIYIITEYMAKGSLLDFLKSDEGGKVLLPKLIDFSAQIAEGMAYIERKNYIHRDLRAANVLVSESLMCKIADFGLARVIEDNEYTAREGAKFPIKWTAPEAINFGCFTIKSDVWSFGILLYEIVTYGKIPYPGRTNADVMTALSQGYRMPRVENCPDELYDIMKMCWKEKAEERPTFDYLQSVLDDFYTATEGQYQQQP

For `COc1ccc(Cl)c(-c2c(Cl)n(C(C)(C)C)c3ncnc(N)c23)c1` (single isomer, unassigned) [2e-(S), 7-(tert-butyl)-6-chloro-5-(2-chloro-5-methoxyphenyl)-7H-pyrrolo[2,3-d]pyrimidin-4-amine], the “S(40%): number of kinases inhibited greater than 40% divided by number of kinases tested (including Src)” value in assay [1] (1000 nM) is given as 0.16; in [1] (5000 nM), 0.61. For the same compound, the “Inhibited % (n/18) of tyrosine kinases” value in assay [1] (share of the 18 tyrosine kinases inhibited, concentration not printed in Table 3) is on record as “(S): Inhibited 16% (3/18)”. For the same compound, the “IC50 of compound Kinase/IC50 of compound Yes” value is 1.96 at Abl (Abl relative to Yes); 10.53 at Ret kinase (Ret relative to Yes); 1 against Yes (Yes relative to Yes); 1.64 on Src kinase; >10.0 at EGFR. For the same compound, the “S/R (5000 nM): % inhibition 2e-(S) / % inhibition 2e-(R)” value was 2.57 on Abl (Abl, 5000 nM); 0.38 on Alk; 1.46 at Blk; 1.86 on BTK; 1.28 on CSK; 1.05 at Fgr. Moreover, the “S/R (5000 nM): % inhibition 2e-(S) / % inhibition 2e-(R)” value is given as 1.27 on Fyn; 1.25 at Hck; 1.38 at Kit; 1.05 on Lck; 1.31 on Lyn; 0.44 on Ret kinase (Ret, 5000 nM). For the same compound, the “S/R (5000 nM): % inhibition 2e-(S) / % inhibition 2e-(R)” value worked out at 0.97 on Yes (Yes, 5000 nM); 1.63 at pdgfr-a; 1.23 on pdgfr-b. For the same compound, on Ret kinase (Ret versus Abl and Src, listed as 2e-(5)), the “augmentation/increase of 5's inherent selectivity” value is ~8 fold.

The record behind these values is patent US10934300B2, “Atropisomerism for enhanced kinase inhibitor selectivity” (San Diego State University Foundation, priority 2017, dated 2021).
